{"source": "patent US12016865B2", "about": "“Methods and pharmaceutical compositions for treating candida auris in blood” (Cormedix Inc., priority 2017, dated 2024)", "key": {"Microbes": {"test_system": "Microbes", "conditions": "microbes killed and toxins inactivated; cited from earlier work"}, "[1]": {"conditions": "saturated solution in deionized water; cited from earlier work"}, "[2]": {"conditions": "cited from earlier work"}, "[3]": {"test_system": "C. auris blood-borne pathogens", "assay": "treating C. auris blood-borne pathogens (FIG. 2)", "design": "species or system Candida auris", "conditions": "blood-borne infection of C. auris", "source_text": "FIG. 2 is a table showing the effectiveness of treating a blood-borne infection of C. auris using taurolidine and/or taurolidine derivatives."}, "[4]": {"conditions": "stored at ambient conditions; cited from earlier work"}, "[5]": {"conditions": "cited from earlier work", "remark": "listed apart in the source"}, "[6]": {"conditions": "water buffered at pH 7.2; cited from earlier work"}}}
{"smiles": "O=S1(=O)CCN(CN2CCS(=O)(=O)NC2)CN1", "note": "[taurolidine, 4,4′-methylene-bis(tetrahydro-1,2,4-thiadiazine)-1,1,1′,1′,-tetraoxide]", "values": [{"measurement": "destruction time in vitro", "setting": "Microbes", "result": "approximately 30 minutes"}, {"measurement": "pH of saturated solution", "setting": "[1]", "result": 7.4}, {"measurement": "cumulative dose shown safe and well tolerated", "setting": "[2]; cumulative doses", "result": "> 300", "unit": "g"}, {"measurement": "systemic dose shown safe and well tolerated", "setting": "[2]; systemic doses", "result": "exceeding 40 g/day"}, {"measurement": "effect on C. auris blood-borne pathogens", "setting": "[3]", "result": "neutralize C. auris blood-borne pathogens"}, {"measurement": "stability in the solid state", "setting": "[4]", "result": "acceptable stability"}, {"measurement": "solubility in CHCl3", "setting": "[5]; CHCl3", "result": "insoluble"}, {"measurement": "solubility in Dilute HCl", "setting": "[5]; Dilute HCl", "result": "soluble"}, {"measurement": "solubility in Dilute NaOH", "setting": "[5]; Dilute NaOH", "result": "soluble"}, {"measurement": "solubility in EtOH", "setting": "[5]; EtOH", "result": "sparingly soluble"}, {"measurement": "solubility in Water", "setting": "[5]; Water, at 20 degrees C.", "result": 1, "unit": "%"}, {"measurement": "apparent partition coefficient between octanol and water", "setting": "[6]", "result": "approximately 0.13"}]}
